Data taken from patent US12551581B2, “Combination cancer immunotherapy with pentaaza macrocyclic ring complex” (Galera Labs, LLC, priority 2017, dated 2026).
Like-named read-outs stand apart in the source and are kept apart here.

What was measured:
[1] = rats, experimental colitis; Cuzzocrea et al. 2001; cited from earlier work
[2] = rat model; Salvemini et al. 1999; cited from earlier work
[3] = rat collagen-induced arthritis; Salvemini et al. 2001; cited from earlier work
[4] = lethal total body irradiation, adult mice; Thompson et al. 2010; cited from earlier work
[5] = hamster oral mucositis; Murphy et al. 2008; cited from earlier work
4T1 tumors [6] = assay: 4T1 tumor volume with GC4419 and/or radiation in immunocompetent mice; format: in vivo, Balb/c mice
Protocol: (§1) In separate studies, either syngeneic Balb/c mice or immunodeficient nu/nu mice were subcutaneously implanted with 4T1 cells to form a xenograft. On day 11 after transplant, animals were treated with GC4419 (24 mg/kg) and/or 15 Gy of 250 kVp X-rays, as described in Table 5 below.
(§2) Tumor volume was tracked as a function of time, and Day 17 (the last common day of measurement between the two studies given the rapid growth of tumors in the nu/nu mice) mean tumor volumes are described in Table 6 below.

[7] = rat model; Tuder et al. 2003; cited from earlier work
[8] = tested on: 4T1 mouse breast cancer tumors; assay: 4T1 syngeneic model, GC4419 with anti-CTLA-4, delayed/skip dosing (Example 6); format: in vivo, Balb/C mice
Protocol: GC4419 was administered in combination with the T-cell checkpoint inhibitor anti-CTLA-4 (9D9) to female Balb/C mice implanted subcutaneously with the mouse breast cancer cell line, 4T1. Tumors were allowed to grow for up to 35 days or until they exceeded 3000 mm^3 (or Group mean of 2000 mm^3).
Treatments with the antibody and GC4419 are described in Table 8.
Tumor volumes were assessed and mean values are shown in FIGS. 5C and 5D (Mean Tumor Volumes in 4T1 Model).

4T1 tumors [9] = assay: 4T1 tumor volume with GC4419 and/or radiation in immunodeficient mice; format: in vivo; conditions: nu/nu mice
Protocol: as §1, §2

[10] = tested on: 4T1 mouse breast cancer tumors; assay: 4T1 syngeneic tumor model, GC4419 with anti-CTLA-4, start day varied (Example 5); format: in vivo, Balb/C mice
Protocol: GC4419 was administered in combination with the T-cell checkpoint inhibitor anti-CTLA-4 (9D9) to female Balb/C mice implanted subcutaneously with the mouse breast cancer cell line, 4T1. Tumors were allowed to grow for up to 45 days or until they exceeded 3000 mm^3 (or Group mean of 2000 mm^3).
Treatments with the antibody and GC4419 are described in Table 7.
Tumor volumes were assessed and mean values are shown in FIG. 5A (Mean Tumor Volumes in 4T1 Model).
FIG. 5B depicts such an improvement occurring for dosing of GC4419 that is delayed until day 13 after a start of anti-CTLA4 administration (i.e., after the 5th dose of anti-CTLA4). In comparison of arms treated with (a) combination of GC4419 with anti-CTLA4 treatment and (b) anti-CTLA4 treatment alone, no difference should be apparent between the two arms before addition of GC4419 treatment. As a result tumor control was assessed by normalizing the tumor growth curves of each arm with respect to the day on which treatment with GC4419 was started in the combination arm (i.e., day 13 in FIG. 5B).

[11] = tested on: 4T1 tumors and lung metastases; assay: 4T1 metastatic breast cancer model, GC4419 with radiation and anti-CTLA4; format: in vivo, mice (syngeneic)
Protocol: Specifically, as shown in FIGS. 4A-4C, GC4419 decreases metastasis and enhances the efficacy of the combination of radiation and T-cell checkpoint inhibitor anti-CTLA4 (9D9) in the 4T1 metastatic breast cancer model. Syngeneic animals were subcutaneously implanted with 4T1 cells to form a xenograft. On day 12, when no lung metastasis is present, animals were treated with GC4419 (24 mg/kg), 15 Gy of 250 kVp X-rays, and/or anti CTLA-4 antibodies (10 mg/kg) or IgG control antibodies, as described in Table 3 below. Tumor growth was tracked as a function of time and at day 35 post implantation ([…]), animals were euthanized and lungs collected to count metastases.

[12] = head-and-neck cancer patients undergoing chemoradiation therapy; Anderson 2015; cited from earlier work
[13] = tested on: Lewis lung carcinoma (LLC) tumors; assay: Lewis lung carcinoma tumors, GC4419 plus ionizing radiation; format: in vivo, C57.CL/6 mice
Protocol: The effects of GC4419 plus IR on intratumoral levels of key immune cell populations were tested in Lewis lung carcinoma (LLC) tumors. In the study, 4 week old C57.CL/6 mice were injected with LLC cells to form tumors. At 13 days post-injection, animals were treated with GC4419 at doses of 3, 10 and 24 mg/kg and 15 Gy of 250 kVp X-rays. Tumor growth was tracked until tumor size exceeded 2 cm in any one direction. In addition, tumor infiltrating lymphocyte populations were assessed in separate animals via flow cytometry at various time points post IR (15 Gy) in combination with 10 mg/kg GC4419 treatment. Intratumoral populations of neutrophils, macrophages and activated cytotoxic T-cells were altered due to the presence of GC4419 either with or without ionizing radiation, as shown in FIG. 6B. However, it is unclear from this study alone whether these transient alterations in the immune cell populations caused by GC4419 contribute to improved results for the combination of GC4419 with checkpoint inhibitor therapy combined or in the absence of radiation therapy.

LLC tumors = assay: LLC abscopal study, GC4419 with radiation and anti-CTLA4, primary and secondary tumors; format: in vivo, C57Bl/6 mice
Protocol: Syngeneic animals (C57Bl/6 mice) were subcutaneously implanted with LLC cells in the right flank to form a xenograft (primary tumor). On day 2, the same animals were subcutaneously implanted with LLC cells in the left flank for form another xenograft (secondary tumor). On day 8, some animals began treatment with anti CTLA-4 antibodies (200 μg) as indicated below. On day 11, when both primary and secondary tumors were palpable, all animals were treated with GC4419 (24 mg/kg), 15 Gy of 250 kVp X-rays, and/or anti CTLA-4 antibodies (10 mg/kg), as described in Table 10 below. Tumor growth was tracked as a function of time for both primary and secondary tumors.

[14] = tested on: Colon 26 mouse colon cancer cell line tumors; assay: Colon 26 syngeneic tumor model, GC4419 with anti-PD1; format: in vivo, Balb/C mice; conditions: 1 and 3 mg/kg bid ip GC4419 added to anti-PD1 5 mg/kg; versus anti-PD1 alone
Protocol: GC4419 was administered in combination with the T-cell checkpoint inhibitor anti-PD-1 (RMP1-14) to female Balb/C mice implanted with the mouse colon cancer cell line, Colon 26 beginning on day 3 post-implantation. Tumors were allowed to grow for up to 52 days or until they exceeded 1000 mm3.
Treatments with the antibody and GC4419 are described in Table 1.
Tumor volumes were assessed and median and mean values are shown in FIG. 1 (Median Tumor Volumes in Colon 26 Model) and 2 (Mean Tumor Volumes in Colon 26 Model).

Question: Which “injury to the colon” value [1] does the source give for `[Cl-].[Cl-].[Mn+2].c1cc2nc(c1)CN[C@@H]1CCCC[C@H]1NCCN[C@@H]1CCCC[C@H]1NC2` [GC4403] here?
Answer: The value was “very significantly reduce the injury to the colon”.

Question: And the inflammation [2]?
Answer: Its inflammation is “inhibit inflammation”.

Question: And the joint disease [3]?
Answer: The joint disease was “prevent joint disease”.

Question: And the radiation damage [4]?
Answer: The radiation damage was “attenuate the radiation damage”.

Question: What about the radiation damage [5] of the same compound?
Answer: Its radiation damage is “attenuate the radiation damage”.

Question: With `[Cl][Mn][Cl].c1cc2nc(c1)CN[C@H]1CCCC[C@@H]1NCCN[C@H]1CCCC[C@@H]1NC2` [GC4419] as the compound, how does the “V(x) / V(Group 3)” value (4T1 tumors [6]; Balb/c mice, Day 17 volume relative to RT alone group) read?
Answer: The value was 1.25.

Question: What about the “Day 17 Tumor Volume, V” value (4T1 tumors [6]; Balb/c mice, mean, GC4419 24 mg/kg D11-15, RT 15 Gy D11) of the same compound?
Answer: The value was 1923 mm^3.

Question: What about the tumor growth (4T1 tumors [6]; Balb/c mice, radiation plus GC4419 versus radiation alone) of the same compound?
Answer: The tumor growth was “further tumor growth reduction”.

Question: What about the “increase in response to combined radiation and GC4419 treatment” value (4T1 tumors [6]; Balb/c versus nu/nu mice) of the same compound?
Answer: The value was “greater in immunocompetent mice than in immunodeficient mice”.

Question: What about the “VEGFr inhibitor-induced pulmonary disease” value [7] of the same compound?
Answer: Its value is “attenuate VEGFr inhibitor-induced pulmonary disease”.

Question: What about the tumor volumes ([8]; 3 mg/kg or 10 mg/kg GC4419 added to anti-CTLA4, started at least 3 days after antibody) of the same compound?
Answer: The tumor volumes was “significant further decrease in tumor volumes”.

Question: What about the “tumor volume (FIG. 5D)” value ([8]; GC4419 10 mg/kg versus 3 mg/kg, with anti-CTLA4) of the same compound?
Answer: Its value is “improved results over a dose of 3 mg/kg”.

Question: What about the “tumor volume (FIG. 5C)” value ([8]; skipping GC4419 on days when anti-CTLA4 was administered) of the same compound?
Answer: The value was “further improved the results, albeit slightly”.

Question: What about the “Day 17 Tumor Volume, V” value (4T1 tumors [9]; mean, GC4419 24 mg/kg D11-15, RT 15 Gy D11) of the same compound?
Answer: The value was “All sac'd at Day 13”.

Question: What about the tumor growth (4T1 tumors [9]; radiation plus GC4419 versus radiation alone) of the same compound?
Answer: Its tumor growth is “further tumor growth reduction”.

Question: What about the tumor growth ([10]; 3 mg/kg GC4419 QD x 21 added, started at least 3 days after antibody treatment) of the same compound?
Answer: Its tumor growth is “further decrease”.

Question: What about the “normalized tumor growth (FIG. 5B)” value ([10]; GC4419 start delayed until day 13 after start of anti-CTLA4, versus anti-CTLA4 alone) of the same compound?
Answer: The value was “reduced tumor growth”.

Question: And the “sensitization of tumors to radiation (tumor volume, FIG. 4A)” value ([11]; GC4419 24 mg/kg D12-16 with 15 Gy RT D12)?
Answer: The value was “sensitized 4T1 tumors to radiation regardless of GC4419 dose”.

Question: What about the “efficacy of combination anti CTLA-4 therapy and radiation therapy (tumor volume, FIG. 4B)” value ([11]; GC4419 24 mg/kg added to anti-CTLA4 10 mg/kg + 15 Gy RT) of the same compound?
Answer: Its value is “enhanced the efficacy of combination anti CTLA-4 therapy and radiation therapy”.

Question: And the “number of surface lung metastases (FIG. 4C)” value ([11]; day 35 post implantation)?
Answer: Its value is “significantly decreased the number of metastases”.

Question: And the “% Mice without Lung Metastases” value ([11]; day 35 post implantation, GC4419 24 mg/kg, RT 15 Gy, anti-CTLA4 10 mg/kg)?
Answer: Its value is 0%.

Question: What about the oral mucositis [12] of the same compound?
Answer: The oral mucositis was “reduce oral mucositis”.

Question: What about the “intratumoral populations of neutrophils, macrophages and activated cytotoxic T-cells” value ([13]; 10 mg/kg GC4419 with or without IR 15 Gy, flow cytometry, various time points) of the same compound?
Answer: The value was “altered”.

Question: And the “sensitization of tumors to ionizing radiation (FIG. 6A)” value ([13]; GC4419 3, 10 and 24 mg/kg with 15 Gy)?
Answer: Its value is “sensitized tumors to ionizing radiation regardless of dose”.

Question: And the “sensitization of primary and secondary tumors to radiation (growth delay)” value (LLC tumors; GC4419 D11-15 with 15 Gy RT D11 to primary tumor)?
Answer: Its value is “sensitized primary and secondary tumors to radiation”.

Question: And the “growth of secondary tumors (FIG. 8E)” value (LLC tumors; GC4419 added to anti CTLA-4 therapy and radiation therapy)?
Answer: The value was “slowed the growth of secondary tumors”.

Question: What about the “sensitization of primary tumors to combination of anti CTLA-4 therapy and radiation therapy” value (LLC tumors; GC4419 added to anti-CTLA4 200 μg + 15 Gy RT) of the same compound?
Answer: The value was “sensitized”.

Question: What about the tumor growth [14] of the same compound?
Answer: The tumor growth was “further decrease”.
